# Results from PMC12768458 (European journal of medicinal chemistry, 2025).
# Tests used:
# CXCL1 mRNA expression = conditions: LPS-induced TSECs, prior work ref 27; cited from earlier work
# BRD3-D2 = BRD3-D2 (Homo sapiens, UniProt Q15059); test: differential scanning fluorimetry; format: binding; conditions: DSF
# BRD2-D2 = BRD2-D2 (Homo sapiens, UniProt P25440); test: differential scanning fluorimetry; format: binding; conditions: DSF
# CCL2 mRNA expression = conditions: LPS-induced TSECs, prior work ref 27; cited from earlier work
# BET bromodomains = test: differential scanning fluorimetry; format: binding; conditions: DSF, majority of BET bromodomains
# NLuc-BRD4-D1 = NLuc-BRD4-D1 (Homo sapiens, UniProt O60885); test: live-cell NanoBRET competition assay in HEK293T; format: cell-based; conditions: 1.25 μM, 2 h at 37 °C
# [1] = system: colony forming megakaryocyte; conditions: CFU-Mk ref 14; cited from earlier work
# Chain of BRD3-D2 (Q15059 306-415 limits assumed): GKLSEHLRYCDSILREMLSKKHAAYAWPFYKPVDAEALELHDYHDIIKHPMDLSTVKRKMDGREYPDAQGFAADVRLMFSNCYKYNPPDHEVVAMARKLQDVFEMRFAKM
# Chain of BRD2-D2 (P25440 344-453 limits assumed): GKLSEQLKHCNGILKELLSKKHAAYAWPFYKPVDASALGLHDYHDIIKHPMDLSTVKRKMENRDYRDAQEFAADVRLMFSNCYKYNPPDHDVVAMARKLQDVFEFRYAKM
smiles,measurement,setting,value
CC(=O)Nc1c(F)cc(C(=O)N[C@H]2CC[C@H](O)CC2)cc1O[C@@H](C)c1ccccc1 [iBET-BD2],"CXCL1 expression, in words",CXCL1 mRNA expression,does not significantly reduce the expression of CXCL1
COc1cc2c(cc1-c1c(C)noc1C)ncc1[nH]c(=O)n([C@H](C)c3ccccn3)c12 [IBET-151],stabilization in melting temperature,BRD3-D2,3.96 ±0.09 °C
same,stabilization in melting temperature,BRD2-D2,3.70 ±0.12 °C
same,"CCL2 expression, in words",CCL2 mRNA expression,decrease in CCL2 mRNA levels comparable to control levels
same,stabilization in melting temperature,BET bromodomains,> 6 °C
same,% inhibition of BRD4-D1,NLuc-BRD4-D1,85 ±6%
same,"CXCL1 expression, in words",CXCL1 mRNA expression,significant efficacy in reducing the downstream expression of CXCL1 and CCL2
CCNC(=O)c1cc2c(-c3cc(C(C)(C)O)ccc3Oc3c(C)cc(F)cc3C)cn(C)c(=O)c2[nH]1 [ABBV-744],less toxic compared to ABBV-075,[1],18 fold
